{"source": "paper PMC6300978", "about": "(Chemico-biological interactions, 2015)", "key": {"UGT1A1": {"target": "T1, UGT1A1 (Homo sapiens, UniProt P22309)", "T1 sequence (P22309 26-533)": "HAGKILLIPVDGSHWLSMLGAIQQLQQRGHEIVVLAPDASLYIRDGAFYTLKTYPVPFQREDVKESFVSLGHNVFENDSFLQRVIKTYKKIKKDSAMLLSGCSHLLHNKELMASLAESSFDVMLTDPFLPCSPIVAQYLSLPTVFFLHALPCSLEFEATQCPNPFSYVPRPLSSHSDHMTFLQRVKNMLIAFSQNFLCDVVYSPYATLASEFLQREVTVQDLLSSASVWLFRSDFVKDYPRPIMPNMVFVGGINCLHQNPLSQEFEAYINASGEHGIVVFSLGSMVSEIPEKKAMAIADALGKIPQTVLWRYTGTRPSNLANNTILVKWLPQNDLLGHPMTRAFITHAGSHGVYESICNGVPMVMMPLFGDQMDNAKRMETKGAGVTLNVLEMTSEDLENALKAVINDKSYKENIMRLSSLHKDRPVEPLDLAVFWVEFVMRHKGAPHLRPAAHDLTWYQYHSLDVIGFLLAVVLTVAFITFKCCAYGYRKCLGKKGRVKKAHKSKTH", "assay": "GA glucuronidation kinetics by recombinant UGT1A1", "format": "in vitro ADME", "details": "recombinant human UGT1A1, pH 7.4, Clint"}, "CYP3A4": {"system": "CYP3A4", "details": "earlier study; cited from earlier work"}, "UGT1A3": {"target": "T2, UGT1A3 (Homo sapiens, UniProt P35503)", "T2 sequence (P35503 29-534)": "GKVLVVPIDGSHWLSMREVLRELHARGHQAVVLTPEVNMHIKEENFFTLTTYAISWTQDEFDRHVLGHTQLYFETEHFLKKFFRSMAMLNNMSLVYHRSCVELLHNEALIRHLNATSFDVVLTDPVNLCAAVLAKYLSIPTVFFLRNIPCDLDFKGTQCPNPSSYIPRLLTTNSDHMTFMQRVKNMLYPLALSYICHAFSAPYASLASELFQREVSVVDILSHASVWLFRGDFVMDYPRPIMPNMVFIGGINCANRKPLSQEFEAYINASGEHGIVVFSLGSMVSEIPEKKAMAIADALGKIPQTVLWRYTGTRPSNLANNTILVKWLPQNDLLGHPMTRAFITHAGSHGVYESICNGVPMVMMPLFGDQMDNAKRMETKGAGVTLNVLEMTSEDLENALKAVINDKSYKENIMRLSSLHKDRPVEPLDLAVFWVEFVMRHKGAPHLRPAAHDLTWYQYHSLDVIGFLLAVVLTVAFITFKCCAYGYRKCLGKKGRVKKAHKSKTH", "assay": "GA glucuronidation kinetics by recombinant UGT1A3", "format": "in vitro ADME", "details": "recombinant human UGT1A3, pH 7.4"}, "[1]": {"assay": "GA glucuronidation kinetics in cynomolgus monkey liver microsomes", "format": "in vitro ADME, cynomolgus monkeys", "details": "CyLM; for Km at 60 min: cynomolgus monkey, liver microsomes, pH 7.4, Km (KS), Michaelis–Menten"}, "recombinant human UGT1A9": {"target": "T3, recombinant human UGT1A9 (Homo sapiens, UniProt O60656)", "T3 sequence (O60656 26-530)": "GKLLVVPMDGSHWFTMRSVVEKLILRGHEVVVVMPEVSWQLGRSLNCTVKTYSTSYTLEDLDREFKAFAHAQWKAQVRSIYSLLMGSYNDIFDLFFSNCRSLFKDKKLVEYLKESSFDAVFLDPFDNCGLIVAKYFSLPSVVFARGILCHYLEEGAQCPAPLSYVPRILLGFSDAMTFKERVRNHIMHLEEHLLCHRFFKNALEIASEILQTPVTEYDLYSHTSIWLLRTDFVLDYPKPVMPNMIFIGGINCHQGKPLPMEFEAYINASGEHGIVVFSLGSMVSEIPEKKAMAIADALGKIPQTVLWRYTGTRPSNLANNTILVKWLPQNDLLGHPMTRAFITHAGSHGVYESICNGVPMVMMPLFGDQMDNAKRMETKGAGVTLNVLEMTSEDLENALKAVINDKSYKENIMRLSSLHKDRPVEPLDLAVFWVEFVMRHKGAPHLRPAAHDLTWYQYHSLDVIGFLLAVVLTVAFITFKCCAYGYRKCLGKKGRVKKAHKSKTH", "assay": "GA glucuronidation by recombinant UGT1A9", "format": "in vitro ADME", "details": "UGT1A9, whole range of substrate concentrations"}, "[2]": {"assay": "GA glucuronidation kinetics in human liver microsomes", "format": "in vitro ADME", "details": "HLM; for microsomal CLint / Km at 60 min: both, human; for microsomal CLint: human liver microsomes; for Km at 60 min: liver microsomes, pH 7.4, Km (KS), Michaelis–Menten"}, "[3]": {"assay": "GA glucuronidation kinetics in beagle dog liver microsomes", "format": "in vitro ADME, beagle dogs", "details": "DLM; for microsomal CLint / Km at 30 min: beagle, dog; for microsomal CLint: dog liver microsomes; for Km at 30 min: liver microsomes, pH 7.4, Km (KS), Michaelis–Menten"}, "[4]": {"target": "T4, recombinant human UGT2B15 (Homo sapiens, UniProt P54855)", "T4 sequence (P54855 24-530)": "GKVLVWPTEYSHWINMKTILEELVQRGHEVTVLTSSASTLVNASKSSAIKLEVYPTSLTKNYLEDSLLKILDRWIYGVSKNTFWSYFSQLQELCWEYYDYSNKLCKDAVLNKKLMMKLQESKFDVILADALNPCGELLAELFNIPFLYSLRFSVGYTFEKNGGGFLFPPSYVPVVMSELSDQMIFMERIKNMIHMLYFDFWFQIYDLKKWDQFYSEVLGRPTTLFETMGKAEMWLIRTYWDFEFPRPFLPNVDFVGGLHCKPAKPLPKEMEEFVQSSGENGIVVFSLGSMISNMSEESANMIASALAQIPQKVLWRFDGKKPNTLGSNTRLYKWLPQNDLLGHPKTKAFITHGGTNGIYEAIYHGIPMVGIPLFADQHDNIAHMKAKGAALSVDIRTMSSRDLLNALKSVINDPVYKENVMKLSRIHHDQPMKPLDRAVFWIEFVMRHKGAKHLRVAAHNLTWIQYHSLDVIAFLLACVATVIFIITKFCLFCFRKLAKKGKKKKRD", "assay": "GA glucuronidation by recombinant UGT2B15", "format": "in vitro ADME", "details": "UGT2B15, whole range of substrate concentrations"}}}
{"smiles": "CC1(C)C=Cc2c(ccc3c2OC[C@@H](c2ccc(O)cc2O)C3)O1", "note": "[GA, glabridin]", "values": [{"measurement": "microsomal CLint", "setting": "UGT1A1; UGT1A1, M1 formation", "result": 22, "unit": "µL/min/mg"}, {"measurement": "microsomal CLint", "setting": "UGT1A1; UGT1A1, M2 formation", "result": 5, "unit": "µL/min/mg"}, {"measurement": "inhibition of CYP3A4", "setting": "CYP3A4", "result": "mechanism-based inhibitor"}, {"measurement": "microsomal CLint", "setting": "UGT1A3", "result": 29, "unit": "µL/min/mg"}, {"measurement": "Vmax", "setting": "[1]; M1 formation", "result": "0.051 ± 0.005", "unit": "nmol/min/mg"}, {"measurement": "Vmax", "setting": "[1]; M2 formation", "result": "0.51 ± 0.09", "unit": "nmol/min/mg"}, {"measurement": "Km at 60 min", "setting": "[1]; M1 formation", "result": "10 ± 3", "unit": "µM"}, {"measurement": "Km at 60 min", "setting": "[1]; M2 formation", "result": "35 ± 11", "unit": "µM"}, {"measurement": "GA glucuronidation activity", "setting": "recombinant human UGT1A9", "result": "< 0.04", "unit": "nmol/min/mg"}, {"measurement": "Vmax", "setting": "[2]; M1 formation", "result": "0.044 ± 0.005", "unit": "nmol/min/mg"}, {"measurement": "Vmax", "setting": "[2]; M2 formation", "result": "0.25 ± 0.03", "unit": "nmol/min/mg"}, {"measurement": "microsomal CLint", "setting": "[2]; pH 7.4, Clint, M1 formation, Vmax/Km", "result": 7, "unit": "µL/min/mg"}, {"measurement": "microsomal CLint", "setting": "[2]; pH 7.4, Clint, M2 formation, Vmax/Km", "result": 10, "unit": "µL/min/mg"}, {"measurement": "microsomal CLint", "setting": "[2]; pH 7.4, Cltotal, M1 + M2", "result": 17, "unit": "µL/min/mg"}, {"measurement": "Km at 60 min", "setting": "[2]; M1 formation", "result": "6.3 ± 3.6", "unit": "µM"}, {"measurement": "Km at 60 min", "setting": "[2]; M2 formation", "result": "24.2 ± 5.7", "unit": "µM"}, {"measurement": "Vmax", "setting": "[3]; M1 formation", "result": "2.4 ± 0.5", "unit": "nmol/min/mg"}, {"measurement": "Vmax", "setting": "[3]; M2 formation", "result": "6.2 ± 1.3", "unit": "nmol/min/mg"}, {"measurement": "microsomal CLint", "setting": "[3]; pH 7.4, Clint, M1 formation", "result": 71, "unit": "µL/min/mg"}, {"measurement": "microsomal CLint", "setting": "[3]; pH 7.4, Clint, M2 formation", "result": 214, "unit": "µL/min/mg"}, {"measurement": "microsomal CLint", "setting": "[3]; pH 7.4, Cltotal, M1 + M2", "result": 285, "unit": "µL/min/mg"}, {"measurement": "Km at 30 min", "setting": "[3]; M1 formation", "result": "34 ± 12", "unit": "µM"}, {"measurement": "Km at 30 min", "setting": "[3]; M2 formation", "result": "29 ± 12", "unit": "µM"}, {"measurement": "GA glucuronidation activity", "setting": "[4]", "result": "< 0.04", "unit": "nmol/min/mg"}]}
